# Experimental data published in patent US20060276390A1, “Combined treatments comprising synthetic peptide copolymers for preventing graft rejection” (YEDA RESEARCH AND DEVELOPMENT CO. LTD., priority 2003, published 2006).
# “And” between values parts separate entries of the source, which are not always exact repeats. Equal values may be shown once. “Also recorded” adds a separate entry of the source. Read-outs that look alike come from different tables or passages of the source.
# Legend:
# [1] = test system: thyroid glands from C57BL mice transplanted in the kidney capsule of BALB/c mice; assay: Function of transplanted thyroids (I125 absorbance), C57BL→BALB/c model; format: in vivo, mouse
# Description: (§1) In this transplantation model for HVG, thyroid glands from donor mice were transplanted in the kidney's capsules of recipient mice. One week later the transplanted mice were injected with ^125I, and the radioactivity of each kidney (the recipient or the untransplanted kidney) was measured after 20 hours. Δcpm was calculated by subtracting the ^125I absorbance of the untransplanted kidneys from the ^125I absorbance of the recipient kidneys in the same treatment. The mean function index (MFI) for treatment was calculated by dividing the mean Δcpm for the tested treatment by the mean Δcpm for the PBS treatment. P values were obtained by the ANOVA test. This assay indicates objectively and quantitatively not only the graft survival, but also the function (iodine absorbance) of the transplanted thyroid tissue (Isakov et al., 1979).
# BALB/c recipient mice were transplanted in the kidney's capsules with thyroid glands from donor mice in day 0. Grafts were inspected daily. The function (iodine absorbance) of the transplanted thyroid tissue was examined 10 days after transplantation by measuring the iodine absorbance in the kidney.
# Thyroid glands from C57BL mice were transplanted in the kidney capsule of BALB/c mice. Nine days after transplantation, mice were injected with 1 μcI^125, and the radioactivity of each kidney was measured 20 hr. later. MFI—denotes the mean function index, calculated as
# MFI=mean Δcpm for the tested treatment/mean Δcpm for the PBS tested treatment
# [2] = test system: BALB/c recipient mice transplanted with skin grafts from B10.D2 donors; assay: Skin graft rejection, B10.D2→BALB/c model; format: in vivo, mouse
# Description: (§2) Mice were kept in separate cages and inspected daily.
# (§3) The transplanted mice or rats were treated daily with Copolymer 1 at doses of 0.6-2.5 mg/day for mice and 25 mg/day for rats in PBS solution, starting 7 or 14 days before transplantation. In some cases, the first Cop 1 treatment was injected sc in ICFA as a depot dose.
# To test the effect of Copolymer 1 treatment on skin graft rejection in the B10.D2→BALB/c model, BALB/c recipient mice were transplanted with skin grafts from B10.D2 donors and were treated daily with: PBS ip from day −7, Copolymer 1 (ip+sc) from day −7. Grafts were inspected daily.
# Grafts were inspected daily. […] Thyroid glands from B10.D2 donors were transplanted in the kidney's capsules of BALB/c mice.
# [3] = test system: thyroid glands from B10.D2 donors transplanted in the kidney's capsules of BALB/c mice; assay: Function of transplanted thyroids (I125 absorbance), B10.D2→BALB/c model; format: in vivo, mouse; settings: for MFI (mean function index): fold over PBS
# Description: as §1, §3
# To test the effect of Copolymer 1 treatment on the function of transplanted thyroids in the B10.D2→BALB/c model, thyroid glands from donors B10.D2 were transplanted in the kidney's capsules of BALB/c mice. After one week the transplanted mice were injected with I^125, and the radioactivity of each kidney was measured 20 hours later. A cpm was calculated by subtracting the I^125 absorbance of the untransplanted kidneys from the I^125 absorbance of the recipient kidneys in the same treatment. The mean function index (MFI) for each treatment was calculated by dividing the mean I^125 absorbance of (transplanted kidney—untransplanted kidney) in the tested treatment by the mean I^125 absorbance of (transplanted kidney—untransplanted kidney) in the PBS treatment, as follows: [formula]
# [4] = test system: Lewis rats transplanted with an accessory heart from allogeneic disparate BN donor rats; format: in vivo
# Text: Lewis rats were transplanted with an accessory heart from the allogeneic disparate BN donor rats. […] Combination of pretreatment with GA and the respective doses of the immunosuppressants (open bars); Treatment with GA administered from the day of transplantation without pretreatment (striped bar). Cardiac allograft survival was inspected by daily monitoring palpation of the grafts. Grafts were considered rejected when no heart palpitations could be observed.
# [5] = test system: BALB/c recipient mice transplanted with skin grafts from C57BL donors; settings: for mean survival time (MST) of skin graft / prolongation of skin graft survival: FIG. 3 experiment
# Description: BALB/c mice were transplanted with skin grafts from C57BL/6 donors. […] Grafts were considered rejected when no viable donor epidermis remained. At least 7 mice were tested in each group.
# Skin transplantation is an established model to measure immune rejection. In this model recipient and donor mice were anesthetized, shaved and cleaned. Circular pieces of skin (1.0 to 1.3 cm in diameter) were cut from dorsal side of the donor mice and dorsally transplanted to recipient animals by the use of histoacryl (Braun, Melsungen, Germany). The grafts were covered with Nobecutane antiseptic spray bandage (Astra, Wedel, Germany). Mice were kept in separate cages and inspected daily. Grafts were considered rejected when no viable donor epidermis remained.
# Three murine strain combinations: B10.D2→BALB/c in the H-2^d haplotype, C57BL→C3HSW in the H-2^b haplotype, and B10PL→PL/J in the H-2^u haplotype, were tested across minor histocompatibility barriers, and across major histocompatibility barriers transplantation was tested in C57BL→BALB/c in the H-2^b→H-2^d haplotype. These strain combinations were tested with Copolymer 1 both using skin and thyroid transplantations.
# BALB/c recipient mice were transplanted with skin grafts originated in C57BL donors in day 0. GA (100 mg/kg, s.c.) was injected daily starting 2 weeks before transplantation. […] Rejection was considered positive when no viable donor epidermis remained.
# B10PL→PL/J thyroid graft = assay: Thyroid rejection (I125 absorbance), B10PL→PL/J; format: in vivo, mouse; settings: Cop 1
# Description: as §1, §3
# B10PL→PL/J skin graft = assay: Skin graft rejection, B10PL→PL/J (H-2u); format: in vivo, mouse; settings: Cop 1
# Description: as §2, §3
# C57BL→C3HSW skin graft = assay: Skin graft rejection, C57BL→C3HSW (H-2b); format: in vivo, mouse; settings: Cop 1
# Description: as §2, §3
# C57BL→C3H thyroid graft = assay: Thyroid rejection (I125 absorbance), C57BL→C3H (H-2b); format: in vivo, mouse; settings: Cop 1
# Description: as §1, §3
# [6] = FK 506 300 μg/day ip, 7 times from day −2
# [7] = Cop 1 2.5 mg/mouse, Table 7 Part 1
# [8] = Cop 1 2.5 mg/mouse, Table 7 Part 2
# [9] = Cop 1, C57BL → BALB (H-2b → H-2d), Table 5
# [10] = Cop 1 600 μg/day ip from day −7
# [11] = Cop 1, another experiment (N=5)
compound,measurement,setting,value
"C=CC[C@@H]1/C=C(\C)C[C@H](C)C[C@H](OC)[C@H]2O[C@@](O)(C(=O)C(=O)N3CCCC[C@H]3C(=O)O[C@H](/C(C)=C/[C@@H]3CC[C@@H](O)[C@H](OC)C3)[C@H](C)[C@@H](O)CC1=O)[C@H](C)C[C@@H]2OC [FK 506, tacrolimus]",MFI,[1]; FK506 1.25 mg/kg,3.1
same,"Mean I^125 Absorbance, Transplanted kidney",[1]; FK506 1.25 mg/kg,928 ± 165 cpm
same,Δcpm,[1]; FK506 1.25 mg/kg,327 cpm
same,MFI,[1]; FK506 2.5 mg/kg,4.1
same,"Mean I^125 Absorbance, Transplanted kidney",[1]; FK506 2.5 mg/kg,772 ± 519 cpm
same,Δcpm,[1]; FK506 2.5 mg/kg,431 cpm
same,MFI,[1]; FK506 5 mg/kg,3.7
same,"Mean I^125 Absorbance, Transplanted kidney",[1]; FK506 5 mg/kg,1167 ± 636 cpm
same,Δcpm,[1]; FK506 5 mg/kg,383 cpm
same,MST (Mean Survival Time) of skin graft,"[2]; FK506 300 μg/day ip, 7 injections from day −2",21.2 days
same,MST (Mean Survival Time) of skin graft,"[2]; FK506 300 μg/day ip, 7 injections from day −2, listed as FK506",21.2 ± 4.3 days
same,"Mean I^125 Absorption, Transplanted Kidney",[3]; [6],3117 cpm
same,Δcpm (transplanted minus untransplanted kidney),[3]; [6],2424 cpm
same,MFI (mean function index),[3]; FK 506 300 μg/day,3.1
same,Prolongation,[4]; FK 506 1.25 mg/kg alone,15.3 days
same,MST (Mean Graft Survival Time) of heart graft,"[4]; FK 506 1.25 mg/kg daily from 6 days before transplantation, alone, 1.25 mg/kg",22.5 days and 22.5 ± 0.9 days
same,Prolongation,[4]; FK 506 2.5 mg/kg alone,18.3 days
same,MST (Mean Graft Survival Time) of heart graft,"[4]; FK 506 2.5 mg/kg alone, 2.5 mg/kg",25.5 days and 25.5 ± 1.4 days
same,toxicity in rats,"[4]; FK 506 2.5 mg/kg, 2.5 mg/kg",toxic consequences
same,death of rats after number of daily injections,[4]; FK506 5 mg/kg,6-8 daily injections
same,toxicity in rats,"[4]; FK 506 5.0 mg/kg, 5 mg/kg",toxic consequences; also recorded: toxic all rats died
same,mean survival time (MST) of skin graft,[5]; FK 506 5 mg/kg,9.5 days
same,prolongation of skin graft survival,[5]; FK 506 5 mg/kg,12%
same,mean survival time (MST) of skin graft,[5]; FK 506 10 mg/kg,13.8 days
same,prolongation of skin graft survival,[5]; FK 506 10 mg/kg,88%
same,Prolongation,[5]; FK 506 1.25 mg/kg alone,8%
same,MST (Mean Graft Survival Time),"[5]; FK 506 1.25 mg/kg i.m. daily from 6 days before transplantation, alone",11.2 days
same,MST (Mean Graft Survival Time),[5]; FK 506 2.5 mg/kg alone,11.8 days
same,Prolongation,[5]; FK 506 2.5 mg/kg alone,13%
same,MST (Mean Graft Survival Time),[5]; FK 506 5.0 mg/kg alone,12.7 days
same,Prolongation,[5]; FK 506 5.0 mg/kg alone,22%
same,MST (Mean Graft Survival Time),[5]; FK 506 10 mg/kg alone,16.0 days
same,Prolongation,[5]; FK 506 10 mg/kg alone,54%
same,mortality,"[5]; higher dose, FK 506 10 mg/kg, average",20 % of the mice
same,toxic effect on the mice,"[5]; mouse, in vivo, 10 mg/kg",considerable weight loss and weakness
glatiramer acetate [Cop 1],MFI (mean function index),B10PL→PL/J thyroid graft,2.5
same,"Mean I^125 Absorption, Transplanted Kidney",B10PL→PL/J thyroid graft,2009 cpm
same,Δcpm,B10PL→PL/J thyroid graft,1677 cpm
same,MFI,[1]; [7],3.5
same,"Mean I^125 Absorbance, Transplanted kidney",[1]; [7],439 ± 31 cpm
same,Δcpm,[1]; [7],122 cpm
same,MFI,[1]; [8],2.4
same,"Mean I^125 Absorbance, Transplanted kidney",[1]; [8],671 ± 24 cpm
same,Δcpm,[1]; [8],247 cpm
same,MFI (mean function index),[1]; [9],3.0
same,"Mean I^125 Absorption, Transplanted Kidney",[1]; [9],10759 cpm
same,Δcpm,[1]; [9],9835 cpm
same,MST (Mean Survival Time) of skin graft,[2]; Cop 1 300 μg/day ip+sc daily from day −7,20.4 ± 4.5 days
same,MST (Mean Survival Time) of skin graft,"[2]; Cop 1 300 μg/day ip+sc daily from day −7, listed as Copolymer 1",20.4 days
same,MST (Mean Survival Time) of skin graft,[2]; Cop 1 600 μg/day ip+sc daily from day −7,20.6 days and 20.6 ± 3.3 days
same,MST (Mean Survival Time) of skin graft,"[2]; Cop 1 600 μg/day ip+sc daily from day −7, listed as Copolymer 1",20.6 days
same,"Mean I^125 Absorption, Transplanted Kidney",[3]; [10],2901 cpm
same,Δcpm (transplanted minus untransplanted kidney),[3]; [10],2451 cpm
same,MFI (mean function index),"[3]; Cop 1 600 ug/day, another experiment (N=5)",5.2
same,MFI (mean function index),[3]; Cop 1 600 μg/day,3.2
same,"Mean I^125 Absorption, Transplanted Kidney",[3]; [11],1035 cpm
same,Δcpm,[3]; [11],898 cpm
same,Prolongation,"[4]; GA 100 mg/kg alone, vs untreated control",0.4 days
same,MST (Mean Graft Survival Time) of heart graft,"[4]; GA 100 mg/kg daily from 2 weeks before transplantation, alone",7.6 ± 0.5 days
same,effect on heart graft survival,[4]; GA treatment by itself,did not prolong graft survival
same,MST (Mean Survival Time) of skin graft,B10PL→PL/J skin graft,17.6 ± 5.1
same,MST (Mean Survival Time) of skin graft,"[5]; Cop 1, listed as printed C57BL→C3HSW (H-2b → H-2d)",18.5 ± 3.3
same,prolongation of skin graft survival,[5]; GA 100 mg/kg,27%
same,mean survival time (MST) of skin graft,"[5]; GA 100 mg/kg, untreated control 8.5 days",10.8 days
same,Prolongation,"[5]; GA 100 mg/kg alone, Table 6A",10%
same,MST (Mean Graft Survival Time),"[5]; GA 100 mg/kg alone, Table 6B",11.5 days
same,Prolongation,"[5]; GA 100 mg/kg alone, Table 6B",11%
same,appearance of mice,[5]; GA 100 mg/kg injected daily,looked completely healthy
same,MST (Mean Graft Survival Time),"[5]; GA 100 mg/kg s.c. daily from 2 weeks before transplantation, alone, Table 6A",12.3 days
same,MST (Mean Survival Time) of skin graft,C57BL→C3HSW skin graft,17.7 ± 2.1
same,MFI (mean function index),C57BL→C3H thyroid graft,2.3
same,"Mean I^125 Absorption, Transplanted Kidney",C57BL→C3H thyroid graft,1643 cpm
same,Δcpm,C57BL→C3H thyroid graft,1362 cpm
